Key:
Type in all cases: in vivo
[1] = system: redroot pigweed (Amaranthus retroflexus, AMARE); assay: Pre-emerge test, greenhouse herbicide activity screening; conditions: pre-emerge; for Pre-emerge Herbicidal Activity AMARE: phytotoxicity rating 0-100 at 14 days after application; for phytotoxicity rating AMARE: 14 days after application, scale 0-100
Summary of the method: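 Compounds in acetone were track-sprayed at 15-1000 g ai/ha (187 l/ha) on sandy loam pots: pre-emerge one day after seeding, post-emerge at 2-3 leaf stage with 0.25% v/v non-ionic surfactant. Phytotoxicity was rated 14 days later on a 0 (no damage) to 100 (complete death) scale.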

[2] = system: velvetleaf (Abutilon theophrasti, ABUTH); assay: Post-emerge test, greenhouse herbicide activity screening; conditions: post-emerge; for Post-emerge Herbicidal Activity ABUTH: phytotoxicity rating 0-100 at 14 days after application; for ABUTH phytotoxicity rating: 14 days after application, rating scale 0-100
Summary of the method: (§1)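 Compounds in acetone were track-sprayed at 187 l/ha, 15–1000 g ai/ha, onto sandy loam pots. Pre-emerge seeds were sown one day before spraying, with surface watering afterwards. Post-emerge plants were at the 2–3 leaf stage and sprayed with 0.25% v/v non-ionic surfactant. Injury was rated 0–100 at 14 days.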

[3] = system: redroot pigweed (Amaranthus retroflexus, AMARE); assay: as above; conditions: post-emerge; for Post-emerge Herbicidal Activity AMARE: phytotoxicity rating 0-100 at 14 days after application; for AMARE phytotoxicity rating: 14 days after application, rating scale 0-100
Summary of the method: as §1

[4] = system: large crabgrass (Digitaria sanguinalis, DIGSA); assay: as above; conditions: post-emerge; for Post-emerge Herbicidal Activity DIGSA: phytotoxicity rating 0-100 at 14 days after application; for DIGSA phytotoxicity rating: 14 days after application, rating scale 0-100
Summary of the method: as §1

[5] = system: barnyardgrass (Echinochloa crus-galli, ECHCG); assay: as above; conditions: post-emerge; for Post-emerge Herbicidal Activity ECHCG: phytotoxicity rating 0-100 at 14 days after application; for ECHCG phytotoxicity rating: 14 days after application, rating scale 0-100
Summary of the method: as §1

[6] = system: johnsongrass (Sorghum halepense, SORHA); assay: as above; conditions: post-emerge; for Post-emerge Herbicidal Activity SORHA: phytotoxicity rating 0-100 at 14 days after application; for SORHA phytotoxicity rating: 14 days after application, rating scale 0-100
Summary of the method: as §1

[7] = system: sicklepod (Cassia obtusifolia, CASOB); assay: as above; conditions: post-emerge; for Post-emerge Herbicidal Activity CASOB: phytotoxicity rating 0-100 at 14 days after application; for CASOB phytotoxicity rating: 14 days after application, rating scale 0-100
Summary of the method: as §1

[8] = system: green foxtail (Setaria viridis, SETVI); assay: as above; conditions: post-emerge; for Post-emerge Herbicidal Activity SETVI: phytotoxicity rating 0-100 at 14 days after application; for SETVI phytotoxicity rating: 14 days after application, rating scale 0-100
Summary of the method: as §1

[9] = system: lambsquarters (Chenopodium album, CHEAL); assay: as above; conditions: post-emerge; for Post-emerge Herbicidal Activity CHEAL: phytotoxicity rating 0-100 at 14 days after application; for CHEAL phytotoxicity rating: 14 days after application, rating scale 0-100
Summary of the method: as §1

[10] = system: ivyleaf morningglory (Ipomoea hederacea, IPOHE); assay: as above; conditions: post-emerge; for Post-emerge Herbicidal Activity IPOHE: phytotoxicity rating 0-100 at 14 days after application; for IPOHE phytotoxicity rating: 14 days after application, rating scale 0-100
Summary of the method: as §1

[11] = system: field corn (Zea mays L., var. Dekalb 535, CORN); assay: Post-emerge test, crop safety; conditions: post-emerge; for Post-emerge Herbicidal Activity CORN: crop damage rating 0-100 at 14 days after application; for CORN phytotoxicity rating (crop damage): 14 days after application, rating scale 0-100
Summary of the method: (§2)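 Herbicidal damage is scored 0 (none) to 100 (complete plant death) two weeks after a simulated field spray. Rates span 15–1000 g ai/ha, delivered in acetone at 187 l/ha. For post-emergence treatments, plants have 2–3 leaves and the spray carries 0.25% v/v non-ionic surfactant.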

[12] = system: upland rice (Oryza sp., var. Tebonnet, RICE); assay: Post-emerge test, crop safety; conditions: post-emerge; for Post-emerge Herbicidal Activity RICE: crop damage rating 0-100 at 14 days after application; for RICE phytotoxicity rating (crop damage): 14 days after application, rating scale 0-100
Summary of the method: as §2

[13] = system: velvetleaf (Abutilon theophrasti, ABUTH); assay: Pre-emerge test, greenhouse herbicide activity screening; conditions: pre-emerge; for Pre-emerge Herbicidal Activity ABUTH: phytotoxicity rating 0-100 at 14 days after application; for phytotoxicity rating ABUTH: 14 days after application, scale 0-100
Summary of the method: as §2

[14] = system: large crabgrass (Digitaria sanguinalis, DIGSA); assay: as above; conditions: pre-emerge; for Pre-emerge Herbicidal Activity DIGSA: phytotoxicity rating 0-100 at 14 days after application; for phytotoxicity rating DIGSA: 14 days after application, scale 0-100
Summary of the method: as §2

[15] = system: barnyardgrass (Echinochloa crus-galli, ECHCG); assay: as above; conditions: pre-emerge; for Pre-emerge Herbicidal Activity ECHCG: phytotoxicity rating 0-100 at 14 days after application; for phytotoxicity rating ECHCG: 14 days after application, scale 0-100
Summary of the method: as §2

[16] = system: johnsongrass (Sorghum halepense, SORHA); assay: as above; conditions: pre-emerge; for Pre-emerge Herbicidal Activity SORHA: phytotoxicity rating 0-100 at 14 days after application; for phytotoxicity rating SORHA: 14 days after application, scale 0-100
Summary of the method: as §2

[17] = system: sicklepod (Cassia obtusifolia, CASOB); assay: as above; conditions: pre-emerge; for Pre-emerge Herbicidal Activity CASOB: phytotoxicity rating 0-100 at 14 days after application; for phytotoxicity rating CASOB: 14 days after application, scale 0-100
Summary of the method: as §2

[18] = system: green foxtail (Setaria viridis, SETVI); assay: as above; conditions: pre-emerge; for Pre-emerge Herbicidal Activity SETVI: phytotoxicity rating 0-100 at 14 days after application; for phytotoxicity rating SETVI: 14 days after application, scale 0-100
Summary of the method: as §2

[19] = system: lambsquarters (Chenopodium album, CHEAL); assay: as above; conditions: pre-emerge; for Pre-emerge Herbicidal Activity CHEAL: phytotoxicity rating 0-100 at 14 days after application; for phytotoxicity rating CHEAL: 14 days after application, scale 0-100
Summary of the method: as §2

[20] = system: ivyleaf morningglory (Ipomoea hederacea, IPOHE); assay: as above; conditions: pre-emerge; for Pre-emerge Herbicidal Activity IPOHE: phytotoxicity rating 0-100 at 14 days after application; for phytotoxicity rating IPOHE: 14 days after application, scale 0-100
Summary of the method: as §2

[21] = system: field corn (Zea mays L., var. Dekalb 535, CORN); assay: Pre-emerge test, crop safety; conditions: pre-emerge; for Pre-emerge Herbicidal Activity CORN: crop damage, phytotoxicity rating 0-100 at 14 days after application; for phytotoxicity rating CORN (crop damage): 14 days after application, scale 0-100
Summary of the method: (§3)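 Visual ratings on a 0-100 scale (0 no damage, 100 all plants dead) were taken at 14 days after treatment. Rates of 15-1000 g ai/ha in acetone, 187 l/ha, were sprayed onto soil one day after planting (pre-emerge) or onto 2-3 leaf plants with 0.25% v/v surfactant (post-emerge).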

[22] = system: upland rice (Oryza sp., var. Tebonnet, RICE); assay: Pre-emerge test, crop safety; conditions: pre-emerge; for Pre-emerge Herbicidal Activity RICE: crop damage, phytotoxicity rating 0-100 at 14 days after application; for phytotoxicity rating RICE (crop damage): 14 days after application, scale 0-100
Summary of the method: as §3

Cc1ccc(COC(=O)Nc2c(C)c(Cl)cc(F)c2-n2c(=O)cc(C(F)(F)F)n(C)c2=O)cc1 [4-60]
40: Post-emerge Herbicidal Activity DIGSA ([4]; 63 g ai/ha) | Pre-emerge Herbicidal Activity ECHCG ([15]; rate 63 g ai/ha)
100: Pre-emerge Herbicidal Activity AMARE ([1]; rate 63 g ai/ha) | Pre-emerge Herbicidal Activity AMARE ([1]; rate 250 g ai/ha) | Post-emerge Herbicidal Activity ABUTH ([2]; 63 g ai/ha) | Post-emerge Herbicidal Activity ABUTH ([2]; 250 g ai/ha) | Post-emerge Herbicidal Activity AMARE ([3]; 63 g ai/ha) | Post-emerge Herbicidal Activity AMARE ([3]; 250 g ai/ha) | Post-emerge Herbicidal Activity CASOB ([7]; 250 g ai/ha) | Post-emerge Herbicidal Activity CHEAL ([9]; 63 g ai/ha) | Post-emerge Herbicidal Activity CHEAL ([9]; 250 g ai/ha) | Post-emerge Herbicidal Activity IPOHE ([10]; 63 g ai/ha) | Post-emerge Herbicidal Activity IPOHE ([10]; 250 g ai/ha) | Pre-emerge Herbicidal Activity ABUTH ([13]; rate 63 g ai/ha) | Pre-emerge Herbicidal Activity ABUTH ([13]; rate 250 g ai/ha) | Pre-emerge Herbicidal Activity DIGSA ([14]; rate 63 g ai/ha) | Pre-emerge Herbicidal Activity DIGSA ([14]; rate 250 g ai/ha) | Pre-emerge Herbicidal Activity CASOB ([17]; rate 250 g ai/ha) | Pre-emerge Herbicidal Activity SETVI ([18]; rate 250 g ai/ha) | Pre-emerge Herbicidal Activity CHEAL ([19]; rate 63 g ai/ha) | Pre-emerge Herbicidal Activity CHEAL ([19]; rate 250 g ai/ha) | Pre-emerge Herbicidal Activity IPOHE ([20]; rate 250 g ai/ha)
30: Pre-emerge Herbicidal Activity SORHA ([16]; rate 63 g ai/ha) | Pre-emerge Herbicidal Activity CORN ([21]; rate 250 g ai/ha)
60: Post-emerge Herbicidal Activity DIGSA ([4]; 250 g ai/ha) | Post-emerge Herbicidal Activity ECHCG ([5]; 63 g ai/ha) | Post-emerge Herbicidal Activity CASOB ([7]; 63 g ai/ha) | Pre-emerge Herbicidal Activity RICE ([22]; rate 63 g ai/ha)
55: Post-emerge Herbicidal Activity CORN ([11]; 250 g ai/ha)
70: Post-emerge Herbicidal Activity RICE ([12]; 250 g ai/ha) | Pre-emerge Herbicidal Activity ECHCG ([15]; rate 250 g ai/ha) | Pre-emerge Herbicidal Activity RICE ([22]; rate 250 g ai/ha)
90: Post-emerge Herbicidal Activity SETVI ([8]; 250 g ai/ha) | Pre-emerge Herbicidal Activity CASOB ([17]; rate 63 g ai/ha) | Pre-emerge Herbicidal Activity SETVI ([18]; rate 63 g ai/ha)
25: Post-emerge Herbicidal Activity CORN ([11]; 63 g ai/ha)
50: Post-emerge Herbicidal Activity ECHCG ([5]; 250 g ai/ha) | Post-emerge Herbicidal Activity SORHA ([6]; 63 g ai/ha) | Post-emerge Herbicidal Activity SORHA ([6]; 250 g ai/ha) | Post-emerge Herbicidal Activity RICE ([12]; 63 g ai/ha) | Pre-emerge Herbicidal Activity SORHA ([16]; rate 250 g ai/ha) | Pre-emerge Herbicidal Activity IPOHE ([20]; rate 63 g ai/ha)
0: Pre-emerge Herbicidal Activity CORN ([21]; rate 63 g ai/ha)
65: Post-emerge Herbicidal Activity SETVI ([8]; 63 g ai/ha)

COc1c(Cl)cc(F)c(-n2c(=O)cc(C(F)(F)F)n(C)c2=O)c1NC(=O)C=Cc1cccc(Cl)c1 [2-134]
60: SETVI phytotoxicity rating ([8]; 250 g ai/ha) | phytotoxicity rating ABUTH ([13]; 63 g ai/ha)
35: phytotoxicity rating SETVI ([18]; 63 g ai/ha)
80: RICE phytotoxicity rating (crop damage) ([12]; 250 g ai/ha) | phytotoxicity rating ABUTH ([13]; 250 g ai/ha) | phytotoxicity rating SETVI ([18]; 250 g ai/ha)
100: phytotoxicity rating AMARE ([1]; 63 g ai/ha) | phytotoxicity rating AMARE ([1]; 250 g ai/ha) | ABUTH phytotoxicity rating ([2]; 63 g ai/ha) | ABUTH phytotoxicity rating ([2]; 250 g ai/ha) | AMARE phytotoxicity rating ([3]; 63 g ai/ha) | AMARE phytotoxicity rating ([3]; 250 g ai/ha) | CASOB phytotoxicity rating ([7]; 250 g ai/ha) | CHEAL phytotoxicity rating ([9]; 63 g ai/ha) | CHEAL phytotoxicity rating ([9]; 250 g ai/ha) | IPOHE phytotoxicity rating ([10]; 63 g ai/ha) | IPOHE phytotoxicity rating ([10]; 250 g ai/ha) | phytotoxicity rating CHEAL ([19]; 63 g ai/ha) | phytotoxicity rating CHEAL ([19]; 250 g ai/ha)
90: CASOB phytotoxicity rating ([7]; 63 g ai/ha) | phytotoxicity rating DIGSA ([14]; 250 g ai/ha)
10: ECHCG phytotoxicity rating ([5]; 63 g ai/ha) | SORHA phytotoxicity rating ([6]; 63 g ai/ha) | CORN phytotoxicity rating (crop damage) ([11]; 63 g ai/ha) | phytotoxicity rating CASOB ([17]; 63 g ai/ha) | phytotoxicity rating RICE (crop damage) ([22]; 63 g ai/ha)
50: RICE phytotoxicity rating (crop damage) ([12]; 63 g ai/ha)
20: SETVI phytotoxicity rating ([8]; 63 g ai/ha) | CORN phytotoxicity rating (crop damage) ([11]; 250 g ai/ha) | phytotoxicity rating DIGSA ([14]; 63 g ai/ha) | phytotoxicity rating IPOHE ([20]; 63 g ai/ha) | phytotoxicity rating RICE (crop damage) ([22]; 250 g ai/ha)
0: DIGSA phytotoxicity rating ([4]; 63 g ai/ha) | phytotoxicity rating ECHCG ([15]; 63 g ai/ha) | phytotoxicity rating SORHA ([16]; 63 g ai/ha) | phytotoxicity rating CORN (crop damage) ([21]; 63 g ai/ha) | phytotoxicity rating CORN (crop damage) ([21]; 250 g ai/ha)
30: DIGSA phytotoxicity rating ([4]; 250 g ai/ha) | ECHCG phytotoxicity rating ([5]; 250 g ai/ha) | SORHA phytotoxicity rating ([6]; 250 g ai/ha) | phytotoxicity rating ECHCG ([15]; 250 g ai/ha) | phytotoxicity rating SORHA ([16]; 250 g ai/ha) | phytotoxicity rating CASOB ([17]; 250 g ai/ha) | phytotoxicity rating IPOHE ([20]; 250 g ai/ha)

— US6355799B1, “Substituted benzene compounds, process for their preparation, and herbicidal and defoliant compositions containing them” (ISK Americas Incorporated, priority 1997, dated 2002)
